Experimental data taken from patent publication US9192650B2, “Methods of inhibiting photoreceptor apoptosis by eliciting the Faim2 antiapoptotic pathway” (The Regents of the University of Michigan, priority 2011, dated 2015).
“Also recorded” adds a separate entry of the source.

Key:
c-Jun = experiment: Immunoblot of phosphorylation of JNK-target c-Jun (P-c-Jun) in Fas-AAb treated 661W cells; format: cell-based; conditions: inhibitor pretreatment 1 hour before Fas-AAb
Method: (§1) The 661W cell line was maintained in Dulbecco's modified Eagle's medium containing 10% fetal bovine serum, 300 mg/L glutamine, 32 mg/L putrescine, 40 μL/L of β-mercaptoethanol, and 40 μg/L of both hydrocortisone 21-hemisuccinate and progesterone. The media also contained penicillin (90 units/mL) and streptomycin (0.09 mg/mL). Cells were grown at 37° C. in a humidified atmosphere of 5% CO2 and 95% air.
(§2) Retinas from experimental eyes with detachments and control eyes without detachments were dissected from the RPE-choroid, homogenized, and lysed in buffer containing 10 mM HEPES (pH 7.6), 0.5% IgEPal, 42 mM KCl, 1 mM phenylmethylsulfonyl fluoride (PMSF), 1 mM EDTA, 1 mM EGTA, 1 mM dithiothreitol (DTT), and 5 mM MgCl2 and 1 tablet of protease inhibitors per 10 mL buffer (Complete Mini; Roche Diagnostics GmbH, Madison, Wis.). 661W cells were lysed and homogenized in lysis buffer (as above). The homogenates were incubated on ice and centrifuged at 22,000 g at 4° C. for 60 minutes. The protein concentration of the supernatant was then determined (DC Protein Assay kit; Bio-Rad Laboratories, Hercules, Calif.). The protein samples were separated on SDS-polyacrylamide gels (Tris-HCl Ready Gels; Bio-Rad Laboratories, Hercules, Calif.). […] Protein bands were visualized with Ponceau S staining, and the lanes were assessed for equal loading by densitometry of entire lanes. […]

661W cells = experiment: Luminescent cell viability assay, Fas-mediated cell death of 661W cells; format: cell-based; conditions: 661W cells treated with Fas-AAb
Method: as §1
Cell viability was measured by a commercially available luminescent assay kit (Promega, Madison, Wis.). The 661W cells were seeded in 96-well plates (Nunc, Rochester, N.Y.) at 1000-1500 cells/well for 24 hours prior to treatment. Cells were treated with 500 ng/mL of Fas-agonistic Jo2 monoclonal antibody (BD Biosciences, Franklin Lakes, N.J.). In some experiments, cells were pretreated with MEK inhibitor U0126, JNK inhibitor SP600125, or DMSO. Cell viability was measured at various time points by incubating the cells with the pro-luminescent substrate in 96-well plates following manufacturer's instructions. Controls included untreated cells and wells with no cells. Luminescence was measured in a plate reader luminometer (Turner Biosystems, Sunnyvale Calif.).

Faim2 = experiment: Immunoblot of Faim2 protein levels in 661W cells; format: cell-based, mouse; conditions: 661W cells treated with Fas-AAb
Method: as §1, §2

ERK = experiment: Immunoblot of ERK phosphorylation (P-ERK) in Fas-AAb treated 661W cells; format: cell-based; conditions: inhibitor pretreatment 1 hour before Fas-AAb
Method: as §1, §2

caspase 8 = experiment: Luminescent caspase 8 activity assay in 661W cells; format: cell-based
Method: as §1
Caspase 8 and Caspase 3 activity were measured by a commercially available luminescent tetrapeptide cleavage assay kits (Promega, Madison, Wis.). The 661W cells were seeded in 96-well plates (Nunc, Rochester, N.Y.) at 1000-1500 cells/well for 24 hours prior to treatment or siRNA transfection. Cells were treated with 500 ng/mL of Fas-agonistic Jo2 monoclonal antibody (BD Biosciences, Franklin Lakes, N.J.). In some experiments, cells were pretreated with MEK inhibitor U0126, JNK inhibitor SP600125, or DMSO. Caspase activity was measured at various time points by incubating the cells with the pro-luminescent substrate in 96-well plates following manufacturer's instructions. Controls included untreated cells and wells with no cells. Luminescence was measured in a plate reader luminometer (Turner Biosystems, Sunnyvale, Calif.). […]

caspase 3 = experiment: Luminescent caspase 3 activity assay in 661W cells; format: cell-based
Method: as §1
Caspase 8 and Caspase 3 activity were measured by a commercially available luminescent tetrapeptide cleavage assay kits (Promega, Madison, Wis.). The 661W cells were seeded in 96-well plates (Nunc, Rochester, N.Y.) at 1000-1500 cells/well for 24 hours prior to treatment or siRNA transfection. Cells were treated with 500 ng/mL of Fas-agonistic Jo2 monoclonal antibody (BD Biosciences, Franklin Lakes, N.J.). In some experiments, cells were pretreated with MEK inhibitor U0126, JNK inhibitor SP600125, or DMSO. Caspase activity was measured at various time points by incubating the cells with the pro-luminescent substrate in 96-well plates following manufacturer's instructions. Controls included untreated cells and wells with no cells. Luminescence was measured in a plate reader luminometer (Turner Biosystems, Sunnyvale, Calif.).

[1] = 661W cells treated with Fas-AAb
[2] = 661W cells, 24 hours of Fas-AAb treatment

SMILES: Oc1c2ccccc2c2c3c(cccc13)N=N2 [SP600125]
- Concentration of maximal effect on Fas-AAb-dependent c-Jun phosphorylation (c-Jun): 10 to 20 µM

SMILES: N#CC(=C(/N)Sc1ccccc1N)/C(C#N)=C(\N)Sc1ccccc1N [U0126]
- Fas-AAb-mediated cell death in presence of inhibitor (661W cells): increased Fas-AAb-mediated cell death
- Faim2 levels in Fas-AAb treated cells in presence of MAPK inhibitor (Faim2): dose-dependent inhibition; also recorded: reduced the levels of Faim2
- Faim2 level by densitometry (Faim2; 10 μM dose of inhibitor): significant decrease
- Concentration of maximal inhibition of Fas-AAb-induced ERK phosphorylation (ERK): 10 µM
- Effect on Fas-AAb-induced phosphorylation of ERK (ERK; protein isolated 4 hours later): effective in preventing
- Maximally-effective dose for increasing caspase 8 activity (caspase 8; [1]): 10 µM
- Caspase 8 activity in presence of inhibitor (caspase 8; [2]): dose-dependent increase
- Maximally-effective dose for increasing caspase 3 activity (caspase 3; [1]): 10 µM
- Caspase 3 activity in presence of inhibitor (caspase 3; [2]): dose-dependent increase
